Source: US20240425478A1, “CYCLOPENTYLPYRAZOLE CDK2 INHIBITORS” (Genentech, Inc., priority 2021, published 2024)
Like-named read-outs stand apart in the source and are kept apart here.

Legend:
[1] = system: SKOV-3 (ATCC HTB-77); assay: SKOV-3 EdU incorporation cell proliferation assay (CDK4/6-dependent); format: cell-based; conditions: for IC50: Homo sapiens, cellular assay, read-out: CDK4/6 SKOV-3 IC50
Experimental: (§1) (i) OVISE and SKOV-3 EdU Incorporation Cell Proliferation Assays
(§2) Ovarian cancer cell proliferation is measured by incorporation of EdU (5-ethynyl-2′-deoxyuridine) into newly synthesized DNA. CDK2-dependent proliferation is determined using OVISE (JCRB1043, CCNE1-amplified) while CDK4/6-dependent effect is determined with SKOV-3 (ATCC HTB-77) which is not CCNE1-amplified.
(§3) Cells are plated in 384-well plates in RPMI medium supplemented with 10% FBS. Compounds are added at desired concentrations with a final DMSO content of 0.5%, and cells incubated at 37° C./5% CO2 for 16 hours. EdU (Life Technologies) is added to a final concentration of 0.5 μM and incubation continued for 8 hours, followed by fixation with 4% paraformaldehyde. […] Images are acquired using Yokogawa CQ1 imaging cytometer with a 10×objective. […] The IC50 for inhibition of cell division is determined by fitting the fraction of EdU-positive cells as a function of compound dose using a 4-parameter logistic model.

[2] = system: OVISE (JCRB1043, CCNE1-amplified); assay: OVISE EdU incorporation cell proliferation assay (CDK2-dependent); format: cell-based; conditions: for IC50: cellular assay, read-out: CDK2 OVISE IC50; for FS SKOV-3/OVISE: fold selectivity; for increased fold-selectivity SKOV-3/OVISE over Comparator C: (+) sign after FS SKOV-3/OVISE; for improvement in CDK2 OVISE cell potency over Comparator C: in brackets after OVISE IC50, Comparator C 5.5 μM
Experimental: as §1, §2, §3

[3] = target: T1, Cyclin Dependent Kinase 2/Cyclin E1 (CDK2-cycE1) (Homo sapiens, UniProt P24941); assay: CDK2-cycE1 TR-FRET (LANCE) enzyme assay; format: biochemical; conditions: for FS CDK1/CDK2 / FS CDK4/CDK2: fold selectivity; for increased fold-selectivity CDK4/CDK2 over Comparator C: (+) sign after FS CDK4/CDK2;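 as to improvement in potency against CDK2 (Ki) over Comparator C: fold lower CDK2 Ki than comparator c (Ki 0.032 µM)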
T1 construct: purchased ProQinase 0050-0055-1
Experimental: (§4) Cyclin Dependent Kinase 1/Cyclin A2 (CDK1-cycA2), Cyclin Dependent Kinase 2/Cyclin E1 (CDK2-cycE1), Cyclin Dependent Kinase 4/Cyclin D3 (CDK4-cycD3) and Cyclin Dependent Kinase 6/Cyclin D3 (CDK6-cycD3) enzyme assays were carried out as described below.
(ii) CDK2-cycE1 TR-FRET (LANCE®)
(§5) An Echo acoustic dispenser is used to create dose responses of compound dissolved in DMSO into a 384-well microplate. A 5 μL volume of enzyme mix is added to the well, and pre-incubated with compound for 30 minutes. […] Buffer conditions are 50 mM HEPES, pH 7.5, 10 mM MgCl2, 2 mM TCEP, 0.05% BGG and 0.01% Brij 35. The reaction is quenched with 5 μL of EDTA in detection buffer (15 mM [EDTA final]). Finally, a 5 μL TR-FRET detection mix is added to the quenched reaction, which includes Europium labeled anti-phospho-MBP. […] Signal is a ratio of the Acceptor and Donor fluorescence. Inhibition constants are calculated via the Morrison equation. Enzyme source of CDK2-cycE1 is ProQinase, catalog #: 0050-0055-1.

[4] = target: T2, Cyclin Dependent Kinase 1/Cyclin A2 (CDK1-cycA2) (Homo sapiens, UniProt P06493); assay: CDK1-cycA2 TR-FRET (Lance) enzyme assay; format: biochemical; conditions: for Ki: enzymatic assay
T2 construct: purchased ProQinase 0134-0054-1
Experimental: as §4
(1) CDK1-cycA2 TR-FRET (Lance®)
as §5, with “anti-phospho-4E-BP1.” for “anti-phospho-MBP.”, “equation.” for “equation. Enzyme source of CDK2-cycE1 is ProQinase, catalog #: 0050-0055-1.”

[5] = target: T3, Cyclin Dependent Kinase 4/Cyclin D3 (CDK4-cycD3) (Homo sapiens, UniProt P11802); assay: CDK4-cycD3 TR-FRET (LANCE) enzyme assay; format: biochemical; conditions: for Ki: enzymatic assay
T3 construct: purchased Carna Biosciences 04-105
Experimental: as §4
(iii) CDK4-cycD3 TR-FRET (LANCE®)
as §5, with “anti-phospho-4E-BP1.” for “anti-phospho-MBP.”, “equation.” for “equation. Enzyme source of CDK2-cycE1 is ProQinase, catalog #: 0050-0055-1.”

[6] = Table O, cellular SKOV-3 IC50 over OVISE IC50
[7] = Table O, enzymatic assay, read-out: CDK2 Ki
[8] = Table O, enzymatic CDK1 Ki over CDK2 Ki
[9] = Table O, enzymatic CDK4 Ki over CDK2 Ki
[10] = Table Q, enzymatic assay, read-out: CDK2 Ki
[11] = Table S, fold selectivity, enzymatic Ki ratio

T2 sequence (P06493 whole entry): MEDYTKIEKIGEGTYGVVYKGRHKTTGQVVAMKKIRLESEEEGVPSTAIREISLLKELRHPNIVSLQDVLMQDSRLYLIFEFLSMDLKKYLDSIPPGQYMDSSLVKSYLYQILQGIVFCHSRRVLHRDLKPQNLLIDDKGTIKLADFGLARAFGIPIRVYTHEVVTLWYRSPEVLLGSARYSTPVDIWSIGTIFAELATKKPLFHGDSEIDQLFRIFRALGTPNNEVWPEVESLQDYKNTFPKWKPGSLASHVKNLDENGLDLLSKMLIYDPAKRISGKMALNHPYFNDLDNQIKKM
T2 sequence (P20248 whole entry partner): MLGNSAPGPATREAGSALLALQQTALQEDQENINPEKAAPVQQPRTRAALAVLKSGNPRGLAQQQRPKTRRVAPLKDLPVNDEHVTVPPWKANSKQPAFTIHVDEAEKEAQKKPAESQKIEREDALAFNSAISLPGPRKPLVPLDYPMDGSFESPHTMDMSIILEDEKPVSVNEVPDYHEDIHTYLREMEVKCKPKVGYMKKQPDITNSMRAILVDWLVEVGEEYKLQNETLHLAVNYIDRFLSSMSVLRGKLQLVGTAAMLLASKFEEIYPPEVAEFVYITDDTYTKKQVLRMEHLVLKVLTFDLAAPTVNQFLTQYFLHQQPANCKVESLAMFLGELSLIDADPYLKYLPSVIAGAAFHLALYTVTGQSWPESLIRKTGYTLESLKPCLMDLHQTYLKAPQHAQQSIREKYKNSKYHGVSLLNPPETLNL
T3 sequence (P11802 whole entry): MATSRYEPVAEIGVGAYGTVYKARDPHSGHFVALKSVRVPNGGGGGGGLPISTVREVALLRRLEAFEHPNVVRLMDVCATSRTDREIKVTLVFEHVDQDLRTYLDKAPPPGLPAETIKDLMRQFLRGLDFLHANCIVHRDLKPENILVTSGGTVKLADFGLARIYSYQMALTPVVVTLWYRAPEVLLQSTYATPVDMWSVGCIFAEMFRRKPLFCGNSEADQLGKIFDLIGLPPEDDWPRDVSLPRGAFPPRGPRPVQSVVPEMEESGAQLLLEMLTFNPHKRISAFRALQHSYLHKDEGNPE
T3 sequence (P30281 whole entry partner): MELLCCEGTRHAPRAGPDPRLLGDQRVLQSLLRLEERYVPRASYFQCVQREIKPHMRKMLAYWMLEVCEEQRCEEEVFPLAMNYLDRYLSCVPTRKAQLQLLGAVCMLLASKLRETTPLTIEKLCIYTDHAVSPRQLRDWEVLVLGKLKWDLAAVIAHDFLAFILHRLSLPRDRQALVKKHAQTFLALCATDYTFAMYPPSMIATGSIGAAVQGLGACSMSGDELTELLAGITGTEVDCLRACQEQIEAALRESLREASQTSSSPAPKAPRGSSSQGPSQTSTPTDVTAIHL

IC50 ([1]; SK-OV-3, Table O) [nM] | Ki [3, 7] [nM] | FS CDK1/CDK2 [3, 8] | FS CDK4/CDK2 [3, 9] | Ki ([4]; Table O) [nM] | Ki ([5]; Table O) [nM] | Structure (SMILES) | IC50 ([1]; SK-OV-3, Table Q) [nM] | IC50 ([2]; Table O) [nM] | FS SKOV-3/OVISE [2, 6] | increased fold-selectivity SKOV-3/OVISE over Comparator C ([2]; Table Q) | FS SKOV-3/OVISE ([2]; Table Q, cellular) | improvement in CDK2 OVISE cell potency over Comparator C ([2]; Table Q) [fold] | improvement in potency against CDK2 (Ki) over Comparator C [3] [fold] | increased fold-selectivity CDK4/CDK2 over Comparator C ([3]; Table Q) | Ki [3, 10] [nM] | FS CDK1/CDK2 ([3]; Table Q, enzymatic) | FS CDK4/CDK2 ([3]; Table Q, enzymatic) | further results
> 20000 | 890 | 8.3 | 13 | 7400 | 12000 | Cc1cc(=O)n(C)cc1Nc1cc([C@H]2CC[C@@H](OC(=O)NC(C)C)C2)[nH]n1 [Example 2S, (1R,3S)-3-(3-((1,4-dimethyl-6-oxo-1,6-dihydropyridin-3-yl)amino)-1H-pyrazol-5-yl)cyclopentyl isopropylcarbamate] | > 20000 | > 20000 | 1.0 | – | 1.0 | 0.28 | – | (+) (The (+) sign in Table Q signifies desirable increased fold-selectivity of the exemplary compounds over Comparator C) | 890 | 8.3 | 13 | IC50 ([2]; Table Q): > 20000 nM; improvement in potency against CDK2 (Ki) over Comparator C ([3]; Table Q, in brackets after CDK2 Ki, Comparator C 0.032 μM): 0.4 fold
10000 | 8.5 | 24 | 34 | 200 | 290 | CC[C@H](C)NC(=O)O[C@@H]1CC[C@H](c2cc(Nc3cccnn3)n[nH]2)C1 (single isomer, unassigned) [Example 3B] | – | 570 | 18 | – | – | – | – | – | – | – | – | –
> 20000 | 9.6 | 11 | 99 | 110 | 950 | COCCn1nc(Nc2cc([C@H]3CC[C@@H](OC(=O)NC(C)C)C3)[nH]n2)ccc1=O [Example 2II, (1R,3S)-3-(3-((1-(2-methoxyethyl)-6-oxo-1,6-dihydropyridazin-3-y1)amino)-1H-pyrazol-5-y1)cyclopentyl isopropylcarbamate] | – | 2600 | >7.7 | – | – | – | – | – | – | – | – | –
> 20000 | 270 | 41 | 185 | 11000 | – | Cn1c(Nc2cc([C@H]3CC[C@@H](OC(=O)NC(C)(C)C)C3)[nH]n2)ccnc1=O [Example 8A, (1R,3S)-3-(3-((3-methyl-2-oxo-2,3-dihydropyrimidin-4-yl)amino)-1H-pyrazol-5-yl)cyclopentyl tert-butylcarbamate] | – | 20000 | >1 | – | – | – | – | – | – | – | – | –

Continued, compound first:

Structure (SMILES) | IC50 ([1]; SK-OV-3, Table O) [nM] | Ki [3, 7] [nM] | FS CDK1/CDK2 [3, 8] | FS CDK4/CDK2 [3, 9] | Ki ([4]; Table O) [nM] | Ki ([5]; Table O) [nM] | IC50 ([1]; SK-OV-3, Table Q) [nM] | IC50 ([2]; Table O) [nM] | FS SKOV-3/OVISE [2, 6] | increased fold-selectivity SKOV-3/OVISE over Comparator C ([2]; Table Q) | FS SKOV-3/OVISE ([2]; Table Q, cellular) | improvement in CDK2 OVISE cell potency over Comparator C ([2]; Table Q) [fold] | improvement in potency against CDK2 (Ki) over Comparator C [3] [fold] | increased fold-selectivity CDK4/CDK2 over Comparator C ([3]; Table Q) | Ki [3, 10] [nM] | FS CDK1/CDK2 ([3]; Table Q, enzymatic) | FS CDK4/CDK2 ([3]; Table Q, enzymatic) | further results
CC(C)NC(=O)O[C@@H]1CC[C@H](c2cc(Nc3ccc(-n4cccn4)nc3)n[nH]2)C1 [Example 2D, (1R,3S)-3-(3-((6-(1H-pyrazol-1-yl)pyridin-3-yl)amino)-1H-pyrazol-5-yl)cyclopentyl isopropylcarbamate] | 14000 | 14 | 25 | 34 | 350 | 480 | 14000 | 700 | 20 | (+) (The (+) sign in Table Q signifies desirable increased fold-selectivity of the exemplary compounds over Comparator C) | 20 | 7.9 | 2.3 | (+) (The (+) sign in Table Q signifies desirable increased fold-selectivity of the exemplary compounds over Comparator C) | 14 | 25 | 34 | –
CC(C)(C)NC(=O)O[C@@H]1CC[C@H](c2cc(Nc3ccccc3)n[nH]2)C1 [Comparator E, (1R,3S)-3-(3-(phenylamino)-1H-pyrazol-5-yl)cyclopentyl tert-butylcarbamate, reference compound] | – | – | – | – | – | – | – | – | – | – | – | – | – | – | – | – | – | IC50 ([1]; SK-OV-3, Table S): 2700 nM; FS SKOV-3/OVISE ([1]; Table S, fold selectivity, cellular IC50 ratio): 16; IC50 ([2]; Table S): 170 nM; Ki ([3]; Table S, enzymatic assay, read-out: CDK2 Ki): 0.52 nM; Ki ([3]; read-out: CDK2 activity / potency (enzymatic assay)): 0.52 nM; Ki ([4]; Table S): 33 nM; FS CDK1/CDK2 [4, 11]: 63; Ki ([5]; Table S): 23 nM; FS CDK4/CDK2 [5, 11]: 44
Cc1ncncc1Nc1cc([C@H]2CC[C@@H](OC(=O)NC(C)C)C2)[nH]n1 [Example 2U, (1R,3S)-3-(3-((4-methylpyrimidin-5-yl)amino)-1H-pyrazol-5-yl)cyclopentyl isopropylcarbamate] | > 20000 | 15 | 37 | 120 | 560 | 1800 | > 20000 | 400 | >50 | (+) (The (+) sign in Table Q signifies desirable increased fold-selectivity of the exemplary compounds over Comparator C) | > 50 | 13.8 | 2 | (+) (The (+) sign in Table Q signifies desirable increased fold-selectivity of the exemplary compounds over Comparator C) | 15 | 37 | 120 | –
Cc1ncccc1Nc1cc([C@H]2CC[C@@H](OC(=O)NC3CC(O)C3)C2)[nH]n1 (stereo partly drawn) [Example 7D, (1R,3S)-3-(3-((2-methylpyridin-3-yl)amino)-1H-pyrazol-5-yl)cyclopentyl ((1s,3s)-3-hydroxycyclobutyl)carbamate] | > 20000 | 23 | 16 | 52 | 370 | 1200 | – | 1600 | >13 | – | – | – | – | – | – | – | – | –
CC(C)NC(=O)O[C@@H]1CC[C@H](c2cc(Nc3ccc(-n4cccn4)cn3)n[nH]2)C1 [Example 2DD, (1R,3S)-3-(3-((5-(1H-pyrazol-1-yl)pyridin-2-yl)amino)-1H-pyrazol-5-yl)cyclopentyl isopropylcarbamate] | > 20000 | 13 | 52 | 27 | 680 | 350 | 14000 | 610 | 23 | (+) (The (+) sign in Table Q signifies desirable increased fold-selectivity of the exemplary compounds over Comparator C) | 23 | 9 | 2.5 | (+) (The (+) sign in Table Q signifies desirable increased fold-selectivity of the exemplary compounds over Comparator C) | 13 | 52 | 27 | increased fold-selectivity CDK1/CDK2 over Comparator C ([3]; Table Q, (+) sign after FS CDK1/CDK2): (+) (The (+) sign in Table Q signifies desirable increased fold-selectivity of the exemplary compounds over Comparator C)
Cn1c(Nc2cc([C@H]3CC[C@@H](OC(=O)NC45CC(C4)C5)C3)[nH]n2)nccc1=O [Example 9A, (1R,3S)-3-(3-((1-methyl-6-oxo-1,6-dihydropyrimidin-2-yl)amino)-1H-pyrazol-5-yl)cyclopentyl bicyclo[1.1.1]pentan-1-ylcarbamate] | 3000 | – | – | – | – | 150 | – | – | – | – | – | – | – | – | – | – | – | –
